Assay results reported in patent US20230190779A1, “Agent for Improving Symptoms of Menopause” (Kao Corporation, priority 2020, published 2023).

Target: T1, human TRPV4 (Homo sapiens, UniProt Q9HBA0)
T1 construct: expressed in transfected cells; host or cells: HeLa cells (human cervical cancer-derived, ATCC), transient transfection
Assay: Suppression of TRPV4 activity: intracellular calcium ion influx in human TRPV4 expression HeLa cells stimulated with GSK1016790a
Assay type: cell-based
Conditions: GSK + solvent = 100%, n = 3, Mean ± SE
Procedure: Using a primer set consisting of oligonucleotides represented by the base sequences described below which was synthesized with reference to the published human TRPV4 gene sequence using cDNA obtained by reverse transcribing the total RNA extracted from human duodenum-derived cells (Hutu-80 cells, purchased from American Type Culture Collection) as a template, the polymerase chain reaction (PCR) was carried out under the following conditions.
The obtained PCR product was purified using a High Pure PCR Product Purification Kit (manufactured by Roche). Using the purified PCR product and pcDNA3.1 Directional TOPO Expression Kit (manufactured by Invitrogen), a human TRPV4 gene expression vector was produced.
A human cervical cancer-derived cell line (HeLa cells, purchased from American Type Culture Collection) was cultured using a DMEM/F12 medium containing 10% fetal bovine serum (manufactured by Invitrogen). HeLa cells were seeded in a 10 cm cell culture dish at 2×10^5 cells/dish. After culturing for 2 days, the cells were transfected with the human TRPV4 gene expression vector (7.7 lag) produced in the above (1) using TransIT-HeLaMONSTER Transfection Kit (manufactured by Mirus) and cultured for 1 day.
The cells were detached using Detachin (manufactured. by Genlantis Inc.), seeded in a DMEM/F12 medium containing 10% fetal bovine serum on a 96 well Optical bottom plate (manufactured by Nunc A/S) at a cell density of 2.0×10^4 cells/90 μL/well, and further cultured for 1 day.
Measurement of the intracellular calcium ion influx activity was carried out using Calcium Kit II-fluo 4 (trade name, DOJTNDO). 90 μL/well of a loading buffer containing Fluo4-AM was added to the human TRPV4 expression cells produced in the above (2), and incubated at 37° C. for 1 hour. Thereafter, the fluorescence intensity (excitation wavelength: 488 nm, fluorescence wavelength: 524 nm) was measured at 37° C. every two seconds using a fluorescence plate reader (FDSS/μCFLL Functional Drug Screening System C13299, manufactured by Hamamatsu Photonics K. K.). After 30 seconds from the start of the measurement, each of GSK1016790a (manufactured by Sigma) which is the TRPV4 agonist, and the cassis extract, or D3R, C3R, D3G, or C3G prepared in the above Production Example as the sample was diluted with a dilution buffer of the measurement kit, 20 μL/well of a mixed solution thereof (mixed immediately before addition) was added, and the change of fluorescence intensity was measured every two seconds until 300 seconds. […]
The TRPV4 activity of the sample was calculated by the following equation assuming that the calcium ion influx rate by the treatment of GSK1016790a which is the TRPV4 agonist was 100%. […]

T1 sequence (Q9HBA0 whole entry): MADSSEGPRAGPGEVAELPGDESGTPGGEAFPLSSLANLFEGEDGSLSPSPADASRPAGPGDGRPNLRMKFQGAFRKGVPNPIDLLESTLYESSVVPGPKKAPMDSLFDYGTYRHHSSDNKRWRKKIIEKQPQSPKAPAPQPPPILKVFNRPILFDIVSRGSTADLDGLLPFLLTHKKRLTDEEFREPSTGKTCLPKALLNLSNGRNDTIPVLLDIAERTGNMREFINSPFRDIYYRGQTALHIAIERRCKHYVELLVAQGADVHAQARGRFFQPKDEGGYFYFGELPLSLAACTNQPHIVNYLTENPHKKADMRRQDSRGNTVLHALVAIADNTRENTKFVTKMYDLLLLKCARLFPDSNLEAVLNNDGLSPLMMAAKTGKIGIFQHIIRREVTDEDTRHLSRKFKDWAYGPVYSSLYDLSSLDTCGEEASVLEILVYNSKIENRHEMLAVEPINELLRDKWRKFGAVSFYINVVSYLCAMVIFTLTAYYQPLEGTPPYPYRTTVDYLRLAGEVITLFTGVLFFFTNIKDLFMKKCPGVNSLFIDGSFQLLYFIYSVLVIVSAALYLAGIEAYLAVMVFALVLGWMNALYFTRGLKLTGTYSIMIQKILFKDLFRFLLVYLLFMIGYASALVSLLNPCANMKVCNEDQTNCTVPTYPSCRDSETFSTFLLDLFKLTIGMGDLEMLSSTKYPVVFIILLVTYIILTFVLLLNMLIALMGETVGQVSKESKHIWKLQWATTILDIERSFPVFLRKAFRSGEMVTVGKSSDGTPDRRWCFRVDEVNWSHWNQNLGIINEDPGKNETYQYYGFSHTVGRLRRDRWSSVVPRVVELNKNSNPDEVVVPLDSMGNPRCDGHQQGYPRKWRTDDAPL

Structure (SMILES)	Intracellular Ca^2+ increase rate (%) (sample 0.05 μg/mL + GSK 10 nM)	Intracellular Ca^2+ increase rate (%) (sample 0.5 μg/mL + GSK 10 nM)	Intracellular Ca^2+ increase rate (%) (sample 0.14 μg/mL + GSK 10 nM)	Intracellular Ca^2+ increase rate (%) (sample 1.4 μg/mL + GSK 10 nM)
OC[C@H]1O[C@@H](Oc2cc3c(O)cc(O)cc3[o+]c2-c2ccc(O)c(O)c2)[C@H](O)[C@@H](O)[C@@H]1O [C3G, cyanidin-3-glucoside, reference compound]	94.4 ± 3.1%	101.5 ± 4.1%	–	–
OC[C@H]1O[C@@H](Oc2cc3c(O)cc(O)cc3[o+]c2-c2cc(O)c(O)c(O)c2)[C@H](O)[C@@H](O)[C@@H]1O [D3G, delphinidin-3-glucoside, reference compound]	–	–	101.4 ± 2.7%	100.4 ± 3.2%
